The target in this test is T1, Nicotiana tabacum protoporphyrinogen oxidase (NtPPO) (Nicotiana tabacum, UniProt O24164).
T1 construct: gene PPXII
T1 sequence (O24164 1-504): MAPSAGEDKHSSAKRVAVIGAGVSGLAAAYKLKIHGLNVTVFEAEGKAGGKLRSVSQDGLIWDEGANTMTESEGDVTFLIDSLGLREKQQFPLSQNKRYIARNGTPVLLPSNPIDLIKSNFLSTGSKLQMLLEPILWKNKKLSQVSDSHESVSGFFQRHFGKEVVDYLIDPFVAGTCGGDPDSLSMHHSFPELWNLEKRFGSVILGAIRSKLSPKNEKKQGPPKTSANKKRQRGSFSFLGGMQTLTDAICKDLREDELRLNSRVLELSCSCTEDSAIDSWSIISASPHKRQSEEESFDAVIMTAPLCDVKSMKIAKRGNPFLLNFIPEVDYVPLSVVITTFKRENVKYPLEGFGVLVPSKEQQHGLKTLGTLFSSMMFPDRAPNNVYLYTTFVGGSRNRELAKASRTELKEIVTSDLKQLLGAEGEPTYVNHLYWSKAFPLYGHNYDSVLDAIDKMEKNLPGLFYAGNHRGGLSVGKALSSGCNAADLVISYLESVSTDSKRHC
Put plainly: NtPPO inhibition in vitro, protoporphyrin IX formation by absorbance at […] nm. Type of test: biochemical.

Where two headings read alike, the source gives them in different places.

As usually defined, the IC50 is the concentration that gives 50% inhibition.

As to `CS(=O)(=O)NC(=O)c1cc(Oc2ccc(C(F)(F)F)cc2Cl)ccc1[N+](=O)[O-]` [fomesafen], the IC50 (read-out: IC50) was found to be 0.11 ± 0.0012 µM.

`FC(F)(F)Oc1ccc(COc2ccc(-c3ncc(C(F)(F)F)cc3Cl)cc2)cc1` [7a, 3-Chloro-2-(4-((4-(trifluoromethoxy)benzyl)oxy)phenyl)-5-(trifluoromethyl)pyridine] came in with an IC50 of 0.0094 ± 0.0022 µM.
